Experimental data as given in publication PMC11768344 (Pharmaceutics, 2024).
Values after ≈ are worked out from the molar mass of the structure shown. Like-named read-outs stand apart in the source and are kept apart here. Each block holds one molecule with its values, some of them ahead of it.

Legend:
[1] = in vitro drug release, inverted-cup method; assay type: physicochemical; conditions: for solubility: PBS pH 7.4 with 0.25% SDS (release medium), pH 7.4, read-out: solubility in the release media
Protocol: In a preliminary study, the release of ROP-ST from its oil solution was investigated at 25 °C using the dialysis method. Briefly, 0.5 mL of ROP-ST oil solution was placed into a dialysis bag (MWCO: 14 kDa) and immersed into 150 mL of PBS solution (pH 7.4) with 0.5% sodium dodecyl sulfate (SDS). The dialysis media were stirred with a magnetic bar at 100 r/min. An aliquot (1 mL) was withdrawn at predetermined time intervals, and ROP-ST in the samples was quantified using HPLC−UV. […] Therefore, an “inverted-cup” method was utilized in this study to investigate the release profile of ROP-ST (Figure 3a). Briefly, a beaker containing 150 mL of PBS solution (pH 7.4, with 0.25% SDS) as the release medium was placed on a magnetic stirrer and stirred continuously at 100 r/min at room temperature (25 °C). A transparent glass cylinder (inner diameter: 1 cm) with two open endings was placed vertically in the beaker, with one ending immersed in the PBS solution and the other ending exposed to air. Then, 1 mL of ROP-ST oil solution was added to a glass cylinder, and the ending exposed in air was sealed with a plastic thin-film. In the meantime, the beaker was also sealed with a plastic thin-film. At predetermined time intervals, an aliquot (1 mL) of the release medium were withdrawn by a syringe, and 1 mL of fresh release medium was immediately replenished. The concentration of ROP-ST in the samples was determined by HPLC−UV, and the cumulative release of ROP-ST was calculated accordingly. The experiment was performed in triplicates.
For comparison, the release of an ROP-free base from its soybean oil solution and the release of aripiprazole lauroxil (APL) from its soybean oil solution were also investigated. […] To prepare the APL oil solution, 90.4 mg of APL was dissolved and mixed in 5 mL of soybean oil. The concentration of APL was 18.08 mg/mL (27.37 mM). […] Moreover, the marketed APL injectables are suspensions; therefore, the release of APL from its suspension was also studied. This was carried out by placing 5.89 mg of APL into 150 mL of PBS7.4 solution directly, which contained 0.25% SDS. The solution was also stirred and sampled in the same way as described above. APL was analyzed according to the previously reported method.

[2] = saturated solubility (shake, 37 °C, 72 h, HPLC-UV); assay type: physicochemical; conditions: for SPBS 7.4, the solubility in PBS 7.4 solution: PBS pH 7.4, 37 °C
Protocol: After centrifugation at 12,000 r/min for 10 min (TGL-16C centrifuge; Anting Scientific Instrument Company, Shanghai, China), the supernatant was withdrawn, and the solution was filtered through a syringe filter (pore size: 0.45 μm). […] The experiments were performed in triplicates.
Quantification of ROP-ST was performed using an HPLC−UV system consisting of an LC-10AT VP pump, an SPD-10A VP UV–vis detector, a CTO-10A column oven, a SIL-10AF autosampler, and an SCL-10A VP controller (Shimadzu Corporation; Kyoto, Japan). Data were collected and processed using LC-solution software. Isocratic elution was performed on a Diamonsil C18 column (150 mm × 4.6 mm I.D., 5 µm), and an EasyGuard C18 guard column (10 × 4.0 mm I.D., 5 µm) was mounted upstream from the analytical column (Dikma Technologies; Beijing, China). The column temperature was kept at 35 °C, and the UV absorbance wavelength was set at 215 nm. The mobile phase, comprising 88% (v/v) acetonitrile and 12% (v/v) water with 0.1% (v/v) trifluoroacetic acid, was used after filtering through a filter membrane (pore size: 0.45 μm) and degassing within an ultrasonic water bath (KQ-500VDE Ultrasonic Cleaner; Kunshan, China) for 40 min. The flow rate was maintained at 1.0 mL/min, and the injection volume was 20 µL. The calibration curve was linear in the range of 1–200 μM, and the correlation coefficient was >0.9998. […] The lower limit of quantification (LOQ) of ROP-ST was 1 μM (equal to 0.57 μg/mL). The validation of the HPLC method can be found in Supplemental Materials.
Briefly, the column temperature was kept at 35 °C, and the UV absorbance wavelength was set at 240 nm. The mobile phase comprised 50% (v/v) acetonitrile and 50% (v/v) phosphate buffer. The phosphate buffer was prepared by mixing 1.3 mL of sodium dihydrogen phosphate (1 mol/L) with 32.5 mL of disodium hydrogen phosphate (0.5 mol/L) and diluting to 1 L by water, and then the pH value was adjusted to 8.0. The flow rate was maintained at 1.0 mL/min, and the injection volume was 20 µL. The validation of the quantification method can be found in the Supplementary Materials.

[3] = n-octanol/water partition coefficient (experimental Log P); assay type: physicochemical; conditions: 37 °C, read-out: Log Pexp., experimental Log P
Protocol: Approximately 1 mg of ROP-ST and ROP-free base were dissolved in a bi-phase mixture of water-saturated n-octanol solution and n-octanol-saturated water (5 mL:5 mL), respectively. After equilibration in a water bath shaker (37 °C) for 24 h, the two phases were sampled separately and diluted with acetonitrile. […] The Log P value of each compound was calculated accordingly. The experiments were performed in triplicates.

[4] = plasma stability study of ROP-ST; assay type: in vitro ADME, rat; conditions: 25 °C
Protocol: Healthy male Sprague–Dawley rats (SD rats, 200 ± 20 g) were provided by the Animal Experiment Center of Nantong University (protocol code of the ethical proof: S20240617-005). Blood samples were collected from the orbital cavity and centrifuged at 10,000 r/min for 10 min (TGL-16C centrifuge; Anting Scientific Instrument Company, Shanghai, China) to obtain blank plasma. The blank plasma was mixed with saline to obtain plasma solutions of 10%, 20%, and 40% (v/v) plasma, respectively. A half milliliter of saline, or 10%, 20%, and 40% plasma solution, was added to an EP tube, respectively, followed by adding 50 μL of methanolic solution of ROP-ST (concentration: 1100 μM) to each tube. The tubes were sealed and placed in a water bath shaker (37 °C). Three tubes were taken at each predetermined time point (0, 10, 20, 30, 40, 50, 60, 70, 80, and 90 min, respectively), rapidly frozen in liquid nitrogen to terminate the enzymatic reaction, and then stored at −80 °C. The samples were lyophilized to obtain dry residues. Before analysis, the residues were dissolved in methanol and subjected to ultrasonic treatment for 30 s. The resulting solution was filtered through a filter membrane (pore size: 0.45 μm), and the remaining levels of ROP-ST in subsequent filtrates were quantified by HPLC−UV. The hydrolysis rate constants (kobs) of the prodrug were calculated by plotting the natural logarithm of the remaining percentage against time. The corresponding half-life (t1/2) was then calculated (t1/2 = ln2/kobs). The experiment was conducted in triplicates.
(§1) The enzymatic stability of ROP-ST was examined by placing the methanolic solution of the prodrug into rat plasma solution and porcine liver esterase solution. […] The hydrolysis rate constants (kobs) of the prodrug were calculated by plotting the natural logarithm of the remaining percentage against time. The corresponding half-life (t1/2) was then calculated (t1/2 = ln2/kobs). Data at 25 °C were fitted approximately to a first-order kinetic equation for the prodrug loss (Figure 4). It should be noted that the actual hydrolytic kinetics of such lipophilic prodrugs by enzymes could be complicated in vitro and in vivo, which may not fully comply with the first-order kinetics. […] The rate of enzymatic cleavage increases as the concentration of rat plasma or the concentration of porcine liver esterase increases. In fact, the injection site of ROP-ST is muscle, which contains less esterase than the plasma. Therefore, it is logical to hypothesize that the bioconversion rate of ROP-ST in the muscle should be slower, which enables sustained release and long-acting efficacy.

[5] = liver esterase stability study of ROP-ST; assay type: in vitro ADME, porcine; conditions: 0 U/mL, phosphate buffer (pH 8.0) without liver esterase, 25 °C
Protocol: (§2) Porcine liver esterase solutions were prepared by dissolving 4, 8, and 16 mg of porcine liver esterase powder (15 U/mg) into 12 mL of phosphate buffer (pH 8.0) to obtain porcine liver esterase solutions with the concentrations of 5, 10 and 20 U/mL, respectively. A half milliliter of blank buffer solution (pH 8 without enzyme) or porcine liver esterase solutions with the concentration of 5, 10, or 20 U/mL, respectively, was added to an EP tube, followed by adding 50 μL of methanolic solution of ROP-ST (concentration: 1100 μM) to each tube. The tubes were sealed and placed in a water bath shaker (25 °C) according to product instructions and a previous report. Three tubes were taken at each predetermined time point (0, 30, 45, 60, 75, 90, 105, and 120 min, respectively), rapidly frozen in liquid nitrogen to terminate the enzymatic reaction, and then stored at −80 °C. The subsequent treatments of the samples complied with the procedures described in “Section 2.5.1.”. The experiment was conducted in triplicates.
as §1

porcine liver esterase = test: liver esterase stability study of ROP-ST; assay type: in vitro ADME; conditions: for half-life at 100 µM: pig, porcine liver esterase solution
Protocol: as §2, §1

[6] = in vitro drug release, dialysis method (preliminary); assay type: physicochemical; conditions: oil solution in dialysis bag MWCO 14 kDa, PBS pH 7.4 with 0.5% SDS, 25 °C, until 96 h
Protocol: In a preliminary study, the release of ROP-ST from its oil solution was investigated at 25 °C using the dialysis method. Briefly, 0.5 mL of ROP-ST oil solution was placed into a dialysis bag (MWCO: 14 kDa) and immersed into 150 mL of PBS solution (pH 7.4) with 0.5% sodium dodecyl sulfate (SDS). The dialysis media were stirred with a magnetic bar at 100 r/min. An aliquot (1 mL) was withdrawn at predetermined time intervals, and ROP-ST in the samples was quantified using HPLC−UV. […] Therefore, an “inverted-cup” method was utilized in this study to investigate the release profile of ROP-ST (Figure 3a). Briefly, a beaker containing 150 mL of PBS solution (pH 7.4, with 0.25% SDS) as the release medium was placed on a magnetic stirrer and stirred continuously at 100 r/min at room temperature (25 °C). A transparent glass cylinder (inner diameter: 1 cm) with two open endings was placed vertically in the beaker, with one ending immersed in the PBS solution and the other ending exposed to air. Then, 1 mL of ROP-ST oil solution was added to a glass cylinder, and the ending exposed in air was sealed with a plastic thin-film. In the meantime, the beaker was also sealed with a plastic thin-film. […] The concentration of ROP-ST in the samples was determined by HPLC−UV, and the cumulative release of ROP-ST was calculated accordingly. […]

[7] = no reference given; cited from earlier work
[8] = 0% rat plasma (saline solution without rat plasma)
[9] = 5 U/mL porcine liver esterase, pH 8.0, 25 °C
[10] = 10 U/mL porcine liver esterase, pH 8.0, 25 °C
[11] = 20 U/mL porcine liver esterase, pH 8.0, 25 °C

solubility [1]: ~209 µM (≈ 138 µg/mL)
Structure (SMILES): CCCCCCCCCCCC(=O)OCN1C(=O)CCc2ccc(OCCCCN3CCN(c4cccc(Cl)c4Cl)CC3)cc21 [APL, aripiprazole lauroxil, reference compound]

solubility at 72 h ([2]; PBS buffer pH 7.4, pH 7.4, PBS pH 7.4, 37 °C, read-out: SPBS 7.4, the solubility in PBS 7.4 solution): ~1000 µM | solubility at 72 h ([2]; PBS buffer pH 7.4, pH 7.4, PBS pH 7.4, 37 °C, read-out: solubility in PBS 7.4 solution): ~270 µg/mL | SPBS 7.4, the solubility in PBS 7.4 solution [2]: 1040 ± 40 µM | solubility at 72 h ([2]; soybean oil, 37 °C, read-out: Soil, the solubility in soybean oil): 37000 ± 530 µM | logP at 24 h [3]: 1.88 ± 0.17 | released in the first 12 h ([1]; from soybean oil solution 27.37 mM, PBS pH 7.4 with 0.25% SDS, 25 °C): ~80%
Structure (SMILES): CCCN1CCCC[C@H]1C(=O)Nc1c(C)cccc1C [ROP, Ropivacaine]

SPBS 7.4, the solubility in PBS 7.4 solution [2]: <LOQ | Soil, the solubility in soybean oil ([2]; soybean oil, 37 °C): Miscible | half-life at 100 µM [4, 8]: 82.2 ± 26.2 h | half-life at 100 µM ([4]; male, Sprague-Dawley, 10% (v/v) rat plasma in saline, 10% (v/v) rat plasma): 1.59 ± 0.06 h | half-life at 100 µM ([4]; male, Sprague-Dawley, 20% (v/v) rat plasma in saline, 20% (v/v) rat plasma): 1.04 ± 0.06 h | half-life at 100 µM ([4]; male, Sprague-Dawley, 40% (v/v) rat plasma in saline, 40% (v/v) rat plasma): 1.04 ± 0.05 h | half-life at 100 µM [5]: 88.4 ± 14.9 h | k × 10^3, first-order hydrolysis rate constant (porcine liver esterase; 0 U/mL, phosphate buffer (pH 8.0) without liver esterase, 25 °C): 8.0 ±1.3 h^−1 | k × 10^3, first-order hydrolysis rate constant (porcine liver esterase; [9]): 107.9 ± 29.0 h^−1 | k × 10^3, first-order hydrolysis rate constant (porcine liver esterase; [10]): 159.6 ±1.3 h^−1 | k × 10^3, first-order hydrolysis rate constant (porcine liver esterase; [11]): 226.1 ± 24.7 h^−1 | half-life at 100 µM (porcine liver esterase; [9]): 6.78 ± 1.99 h | half-life at 100 µM (porcine liver esterase; [10]): 4.34 ± 0.03 h | half-life at 100 µM (porcine liver esterase; [11]): 3.09 ± 0.36 h | solubility [1]: ~1500 µM (≈ 856 µg/mL) | total cumulative release ([1]; from soybean oil solution 27.37 mM, PBS pH 7.4 with 0.25% SDS, 25 °C, 72 h): 69.55% | duration of sustained release ([1]; from soybean oil solution, PBS pH 7.4 with 0.25% SDS, 25 °C): more than 72 h | ROP-ST detected in dialysis medium [6]: no ROP-ST was detected
Structure (SMILES): CCCCCCCCCCCCCCCCCC(=O)OCN(C(=O)C1CCCCN1CCC)c1c(C)cccc1C (stereo not drawn) [ROP-ST, ropivacaine stearoxil]
k × 10^3, first-order hydrolysis rate constant [4, 8]: 9.1 ± 3.2 h^−1 | k × 10^3, first-order hydrolysis rate constant ([4]; 10% (v/v) rat plasma): 436.6 ± 17.2 h^−1 | k × 10^3, first-order hydrolysis rate constant ([4]; 20% (v/v) rat plasma): 665.0 ± 35.2 h^−1 | k × 10^3, first-order hydrolysis rate constant ([4]; 40% (v/v) rat plasma): 666.9 ± 30.7 h^−1

Structure (SMILES): O=C1CCc2ccc(OCCCCN3CCN(c4cccc(Cl)c4Cl)CC3)cc2N1 [aripiprazole]
pKa [7]: 7.46
